Test results published in ChEMBL document CHEMBL4507301 (2021).

Legend:
[1] = test system: Tyrosine-protein kinase ABL1 (Homo sapiens), P00519 [T315I]; settings: Compound concentration 1000.0 nM
[2] = biological target: Activin receptor type-2A (Homo sapiens) (UniProt P27037); settings: Compound concentration 1000.0 nM
[3] = biological target: Activin receptor type-2B (Homo sapiens) (UniProt Q13705); settings: Compound concentration 1000.0 nM
[4] = biological target: RAC-beta serine/threonine-protein kinase (Homo sapiens) (UniProt P31751); settings: Compound concentration 1000.0 nM
[5] = biological target: Mitogen-activated protein kinase kinase kinase 6 (Homo sapiens) (UniProt O95382); settings: Compound concentration 1000.0 nM
[6] = biological target: Bone morphogenetic protein receptor type-1A (Homo sapiens) (UniProt P36894); settings: Compound concentration 1000.0 nM
[7] = biological target: Bone morphogenetic protein receptor type-1B (Homo sapiens) (UniProt O00238); settings: Compound concentration 1000.0 nM
[8] = biological target: Bone morphogenetic protein receptor type-2 (Homo sapiens) (UniProt Q13873); settings: Compound concentration 1000.0 nM
[9] = biological target: Protein-tyrosine kinase 6 (Homo sapiens) (UniProt Q13882); settings: Compound concentration 1000.0 nM
[10] = biological target: Cyclin-dependent kinase 2 (Homo sapiens) (UniProt P24941); settings: Compound concentration 1000.0 nM
[11] = biological target: Cyclin-dependent kinase 4 (Homo sapiens) (UniProt P11802); settings: Compound concentration 1000.0 nM
[12] = biological target: Serine/threonine-protein kinase Chk2 (Homo sapiens) (UniProt O96017); settings: Compound concentration 1000.0 nM
[13] = biological target: Casein kinase I isoform delta (Homo sapiens) (UniProt P48730); settings: Compound concentration 1000.0 nM
[14] = biological target: Casein kinase II subunit alpha' (Homo sapiens) (UniProt P19784); settings: Compound concentration 1000.0 nM
[15] = biological target: Death-associated protein kinase 3 (Homo sapiens) (UniProt O43293); settings: Compound concentration 1000.0 nM
[16] = biological target: Serine/threonine-protein kinase DCLK3 (Homo sapiens) (UniProt Q9C098); settings: Compound concentration 1000.0 nM
[17] = biological target: Dual specificity tyrosine-phosphorylation-regulated kinase 2 (Homo sapiens) (UniProt Q92630); settings: Compound concentration 1000.0 nM
[18] = biological target: Ephrin type-A receptor 4 (Homo sapiens) (UniProt P54764); settings: Compound concentration 1000.0 nM
[19] = biological target: Receptor tyrosine-protein kinase erbB-4 (Homo sapiens) (UniProt Q15303); settings: Compound concentration 1000.0 nM
[20] = biological target: Mitogen-activated protein kinase 7 (Homo sapiens) (UniProt Q13164); settings: Compound concentration 1000.0 nM
[21] = test system: eIF-2-alpha kinase GCN2 (Homo sapiens), Q9P2K8 [S808G]; settings: Compound concentration 1000.0 nM
[22] = biological target: Inhibitor of nuclear factor kappa-B kinase subunit beta (Homo sapiens) (UniProt O14920); settings: Compound concentration 1000.0 nM
[23] = biological target: Tyrosine-protein kinase JAK3 (Homo sapiens) (UniProt P52333); settings: Compound concentration 1000.0 nM
[24] = test system: Mast/stem cell growth factor receptor Kit (Homo sapiens), P10721 [D816V]; settings: Compound concentration 1000.0 nM
[25] = biological target: Serine/threonine-protein kinase LATS2 (Homo sapiens) (UniProt Q9NRM7); settings: Compound concentration 1000.0 nM
[26] = biological target: Mitogen-activated protein kinase kinase kinase 15 (Homo sapiens) (UniProt Q6ZN16); settings: Compound concentration 1000.0 nM
[27] = biological target: Mitogen-activated protein kinase kinase kinase 4 (Homo sapiens) (UniProt Q9Y6R4); settings: Compound concentration 1000.0 nM
[28] = biological target: Mitogen-activated protein kinase kinase kinase kinase 4 (Homo sapiens) (UniProt O95819); settings: Compound concentration 1000.0 nM
[29] = biological target: Serine/threonine-protein kinase 24 (Homo sapiens) (UniProt Q9Y6E0); settings: Compound concentration 1000.0 nM
[30] = biological target: Mitogen-activated protein kinase kinase kinase 14 (Homo sapiens) (UniProt Q99558); settings: Compound concentration 1000.0 nM
[31] = biological target: Mitogen-activated protein kinase 11 (Homo sapiens) (UniProt Q15759); settings: Compound concentration 1000.0 nM
[32] = biological target: Platelet-derived growth factor receptor alpha (Homo sapiens) (UniProt P16234); settings: Compound concentration 1000.0 nM
[33] = biological target: Phosphatidylinositol 3-kinase C2 domain-containing subunit gamma (Homo sapiens) (UniProt O75747); settings: Compound concentration 1000.0 nM
[34] = test system: Phosphatidylinositol 4,5-bisphosphate 3-kinase catalytic subunit alpha isoform (Homo sapiens), P42336 [C420R]; settings: Compound concentration 1000.0 nM
[35] = biological target: Phosphatidylinositol 4,5-bisphosphate 3-kinase catalytic subunit beta isoform (Homo sapiens) (UniProt P42338); settings: Compound concentration 1000.0 nM
[36] = biological target: Serine/threonine-protein kinase PLK2 (Homo sapiens) (UniProt Q9NYY3); settings: Compound concentration 1000.0 nM
[37] = biological target: Proto-oncogene tyrosine-protein kinase ROS (Homo sapiens) (UniProt P08922); settings: Compound concentration 1000.0 nM
[38] = biological target: Ribosomal protein S6 kinase alpha-4 (Homo sapiens) (UniProt O75676); settings: Compound concentration 1000.0 nM
[39] = biological target: Ribosomal protein S6 kinase alpha-2 (Homo sapiens) (UniProt Q15349); settings: Compound concentration 1000.0 nM
[40] = biological target: Proto-oncogene tyrosine-protein kinase Src (Homo sapiens) (UniProt P12931); settings: Compound concentration 1000.0 nM
[41] = biological target: Serine/threonine-protein kinase TAO2 (Homo sapiens) (UniProt Q9UL54); settings: Compound concentration 1000.0 nM
[42] = biological target: Activated CDC42 kinase 1 (Homo sapiens) (UniProt Q07912); settings: Compound concentration 1000.0 nM
[43] = biological target: BDNF/NT-3 growth factors receptor (Homo sapiens) (UniProt Q16620); settings: Compound concentration 1000.0 nM
[44] = biological target: Serine/threonine-protein kinase 32C (Homo sapiens) (UniProt Q86UX6); settings: Compound concentration 1000.0 nM
[45] = biological target: Sodium-dependent serotonin transporter (Homo sapiens) (UniProt P31645); settings: Compound concentration 10.0 uM
Sequence of Sodium-dependent serotonin transporter (Homo sapiens) (P31645 whole entry, looked up): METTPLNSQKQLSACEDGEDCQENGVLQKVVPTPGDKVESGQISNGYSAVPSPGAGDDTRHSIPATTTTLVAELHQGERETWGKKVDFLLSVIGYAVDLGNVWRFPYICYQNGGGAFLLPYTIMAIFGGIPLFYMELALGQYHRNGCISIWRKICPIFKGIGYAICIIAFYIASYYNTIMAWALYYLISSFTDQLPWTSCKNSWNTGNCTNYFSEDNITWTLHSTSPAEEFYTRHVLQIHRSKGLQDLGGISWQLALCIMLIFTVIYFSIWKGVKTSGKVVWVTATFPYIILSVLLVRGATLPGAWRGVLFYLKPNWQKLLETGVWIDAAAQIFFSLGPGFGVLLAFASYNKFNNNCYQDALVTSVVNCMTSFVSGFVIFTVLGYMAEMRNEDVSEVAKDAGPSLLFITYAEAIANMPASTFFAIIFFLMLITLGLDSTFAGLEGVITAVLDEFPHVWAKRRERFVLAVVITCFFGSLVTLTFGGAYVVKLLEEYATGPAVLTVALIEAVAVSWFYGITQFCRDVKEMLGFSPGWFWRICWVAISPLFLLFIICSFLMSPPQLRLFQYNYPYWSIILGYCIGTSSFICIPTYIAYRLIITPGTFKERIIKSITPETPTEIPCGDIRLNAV

Sequence of Serine/threonine-protein kinase LATS2 (Homo sapiens) (Q9NRM7 whole entry): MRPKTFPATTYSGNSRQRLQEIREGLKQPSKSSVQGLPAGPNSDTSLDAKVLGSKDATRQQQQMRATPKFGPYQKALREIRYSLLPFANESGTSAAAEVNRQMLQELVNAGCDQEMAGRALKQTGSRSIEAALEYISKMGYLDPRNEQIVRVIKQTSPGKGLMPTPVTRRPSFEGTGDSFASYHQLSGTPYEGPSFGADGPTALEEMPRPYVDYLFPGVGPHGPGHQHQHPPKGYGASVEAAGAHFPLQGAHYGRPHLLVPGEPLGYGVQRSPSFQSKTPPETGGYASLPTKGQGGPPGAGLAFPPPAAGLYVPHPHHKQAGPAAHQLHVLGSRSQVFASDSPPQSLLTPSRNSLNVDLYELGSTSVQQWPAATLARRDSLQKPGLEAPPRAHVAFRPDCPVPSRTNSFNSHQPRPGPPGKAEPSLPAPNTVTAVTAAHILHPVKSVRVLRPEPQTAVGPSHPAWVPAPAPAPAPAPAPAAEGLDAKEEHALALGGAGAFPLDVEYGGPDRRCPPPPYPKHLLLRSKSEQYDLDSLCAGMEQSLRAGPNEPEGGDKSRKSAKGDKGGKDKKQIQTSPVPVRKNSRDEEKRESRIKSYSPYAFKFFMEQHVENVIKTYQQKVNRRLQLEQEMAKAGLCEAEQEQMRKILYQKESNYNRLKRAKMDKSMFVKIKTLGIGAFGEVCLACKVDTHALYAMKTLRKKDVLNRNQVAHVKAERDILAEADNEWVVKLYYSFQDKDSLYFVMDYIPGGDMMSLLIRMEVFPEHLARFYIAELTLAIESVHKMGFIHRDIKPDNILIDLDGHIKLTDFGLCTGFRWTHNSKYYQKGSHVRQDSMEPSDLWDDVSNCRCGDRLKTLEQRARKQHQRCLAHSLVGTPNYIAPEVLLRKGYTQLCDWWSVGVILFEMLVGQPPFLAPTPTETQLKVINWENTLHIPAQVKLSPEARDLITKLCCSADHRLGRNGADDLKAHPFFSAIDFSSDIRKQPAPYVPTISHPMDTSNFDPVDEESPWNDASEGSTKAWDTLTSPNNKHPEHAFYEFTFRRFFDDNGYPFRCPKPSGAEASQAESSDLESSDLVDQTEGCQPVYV
Sequence of Inhibitor of nuclear factor kappa-B kinase subunit beta (Homo sapiens) (O14920 whole entry): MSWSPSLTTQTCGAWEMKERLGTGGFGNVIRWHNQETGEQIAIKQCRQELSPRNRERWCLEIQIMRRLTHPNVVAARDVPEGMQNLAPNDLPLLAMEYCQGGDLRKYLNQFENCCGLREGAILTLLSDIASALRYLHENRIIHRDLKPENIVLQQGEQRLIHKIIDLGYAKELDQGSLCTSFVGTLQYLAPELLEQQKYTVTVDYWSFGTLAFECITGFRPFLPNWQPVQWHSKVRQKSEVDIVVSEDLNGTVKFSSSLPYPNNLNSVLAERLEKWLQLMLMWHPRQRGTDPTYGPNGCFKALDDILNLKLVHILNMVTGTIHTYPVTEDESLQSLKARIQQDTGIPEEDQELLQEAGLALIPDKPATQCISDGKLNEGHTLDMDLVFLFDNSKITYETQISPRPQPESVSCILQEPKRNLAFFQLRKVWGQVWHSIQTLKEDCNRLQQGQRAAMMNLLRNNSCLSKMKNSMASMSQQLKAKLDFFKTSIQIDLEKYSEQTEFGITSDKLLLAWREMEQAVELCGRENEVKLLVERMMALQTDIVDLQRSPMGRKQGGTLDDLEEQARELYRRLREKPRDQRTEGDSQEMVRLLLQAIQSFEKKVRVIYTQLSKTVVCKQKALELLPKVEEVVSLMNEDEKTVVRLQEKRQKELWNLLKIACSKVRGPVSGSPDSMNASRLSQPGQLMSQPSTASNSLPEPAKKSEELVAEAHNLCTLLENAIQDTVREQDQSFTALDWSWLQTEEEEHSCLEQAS
Sequence of Serine/threonine-protein kinase DCLK3 (Homo sapiens) (Q9C098 whole entry): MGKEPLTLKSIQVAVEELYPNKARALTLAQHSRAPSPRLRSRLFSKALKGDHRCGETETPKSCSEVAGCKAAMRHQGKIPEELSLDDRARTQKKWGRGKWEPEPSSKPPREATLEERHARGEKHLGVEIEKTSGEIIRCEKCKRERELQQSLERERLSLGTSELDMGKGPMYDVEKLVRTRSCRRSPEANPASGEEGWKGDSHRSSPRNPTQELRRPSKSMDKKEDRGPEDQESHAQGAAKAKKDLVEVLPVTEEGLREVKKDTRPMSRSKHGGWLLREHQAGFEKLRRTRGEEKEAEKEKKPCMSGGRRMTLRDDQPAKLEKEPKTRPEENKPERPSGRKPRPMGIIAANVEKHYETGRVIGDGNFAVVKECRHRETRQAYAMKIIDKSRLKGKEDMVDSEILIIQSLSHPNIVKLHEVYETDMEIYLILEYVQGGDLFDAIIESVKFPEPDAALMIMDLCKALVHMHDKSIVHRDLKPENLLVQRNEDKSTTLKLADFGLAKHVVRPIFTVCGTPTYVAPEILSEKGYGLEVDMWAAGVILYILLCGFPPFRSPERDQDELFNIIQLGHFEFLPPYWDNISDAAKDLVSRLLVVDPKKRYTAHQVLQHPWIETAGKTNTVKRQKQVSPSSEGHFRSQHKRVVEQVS
Sequence of RAC-beta serine/threonine-protein kinase (Homo sapiens) (P31751 whole entry): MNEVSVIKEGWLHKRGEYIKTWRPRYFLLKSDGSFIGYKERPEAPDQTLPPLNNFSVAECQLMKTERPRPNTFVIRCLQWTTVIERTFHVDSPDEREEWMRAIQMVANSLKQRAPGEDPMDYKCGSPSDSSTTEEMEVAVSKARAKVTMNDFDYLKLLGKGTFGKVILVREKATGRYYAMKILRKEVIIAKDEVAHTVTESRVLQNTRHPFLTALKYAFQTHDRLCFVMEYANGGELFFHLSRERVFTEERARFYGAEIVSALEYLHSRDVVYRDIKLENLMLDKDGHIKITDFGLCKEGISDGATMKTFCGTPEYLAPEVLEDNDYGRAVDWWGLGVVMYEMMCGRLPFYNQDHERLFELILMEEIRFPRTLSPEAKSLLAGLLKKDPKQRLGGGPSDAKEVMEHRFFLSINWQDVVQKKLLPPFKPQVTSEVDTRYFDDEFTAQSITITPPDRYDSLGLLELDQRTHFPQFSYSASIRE
Sequence of Receptor tyrosine-protein kinase erbB-4 (Homo sapiens) (Q15303 whole entry): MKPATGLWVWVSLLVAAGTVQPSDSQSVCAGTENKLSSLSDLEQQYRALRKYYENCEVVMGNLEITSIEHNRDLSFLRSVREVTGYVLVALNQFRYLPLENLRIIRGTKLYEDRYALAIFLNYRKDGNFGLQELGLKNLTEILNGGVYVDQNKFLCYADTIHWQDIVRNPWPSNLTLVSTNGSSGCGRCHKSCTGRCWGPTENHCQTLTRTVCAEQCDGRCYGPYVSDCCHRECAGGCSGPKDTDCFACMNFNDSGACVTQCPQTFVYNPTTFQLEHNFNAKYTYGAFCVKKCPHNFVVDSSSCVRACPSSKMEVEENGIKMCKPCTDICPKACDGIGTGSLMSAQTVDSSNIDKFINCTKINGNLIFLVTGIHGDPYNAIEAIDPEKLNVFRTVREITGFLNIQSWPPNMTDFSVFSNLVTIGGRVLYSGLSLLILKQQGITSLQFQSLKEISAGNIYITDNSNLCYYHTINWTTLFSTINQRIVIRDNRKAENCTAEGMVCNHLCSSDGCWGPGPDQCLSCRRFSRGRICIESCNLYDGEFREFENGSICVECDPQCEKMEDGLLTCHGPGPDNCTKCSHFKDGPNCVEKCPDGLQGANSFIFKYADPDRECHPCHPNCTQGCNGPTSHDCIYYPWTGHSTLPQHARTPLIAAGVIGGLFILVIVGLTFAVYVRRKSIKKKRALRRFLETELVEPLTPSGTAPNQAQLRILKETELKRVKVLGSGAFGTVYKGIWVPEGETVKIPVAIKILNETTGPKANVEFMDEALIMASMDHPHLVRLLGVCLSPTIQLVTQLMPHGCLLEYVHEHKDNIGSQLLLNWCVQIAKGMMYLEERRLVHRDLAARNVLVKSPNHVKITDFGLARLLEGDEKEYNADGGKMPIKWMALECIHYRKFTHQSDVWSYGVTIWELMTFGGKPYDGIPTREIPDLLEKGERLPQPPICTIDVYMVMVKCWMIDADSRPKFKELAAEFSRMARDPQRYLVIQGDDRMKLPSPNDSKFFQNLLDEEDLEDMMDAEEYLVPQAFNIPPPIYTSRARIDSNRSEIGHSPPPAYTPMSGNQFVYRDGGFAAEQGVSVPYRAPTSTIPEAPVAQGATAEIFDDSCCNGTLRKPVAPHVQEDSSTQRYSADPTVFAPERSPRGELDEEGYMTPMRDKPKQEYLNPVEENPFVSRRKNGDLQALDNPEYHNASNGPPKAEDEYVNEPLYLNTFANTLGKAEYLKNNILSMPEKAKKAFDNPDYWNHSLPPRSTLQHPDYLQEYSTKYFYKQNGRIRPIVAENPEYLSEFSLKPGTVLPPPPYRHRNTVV

**Q.** Which results are given for `C[C@H](c1cccc(C#N)c1)n1cc(Cl)cc(C(N)=O)c1=N` [(R)-9s]?
**A.** residual activity [1]: 96%; residual activity [2]: 100%; residual activity [3]: 100%; residual activity [4]: 100%; residual activity [5]: 91%; residual activity [6]: 100%; residual activity [7]: 94%; residual activity [8]: 97%; residual activity [9]: 95%; residual activity [10]: 100%; residual activity [11]: 88%; residual activity [12]: 100%; residual activity [13]: 100%; residual activity [14]: 100%; residual activity [15]: 100%; residual activity [16]: 99%; residual activity [17]: 84%; residual activity [18]: 65%; residual activity [19]: 100%; residual activity [20]: 88%; residual activity [21]: 45%; residual activity [22]: 100%; residual activity [23]: 94%; residual activity [24]: 87%; residual activity [25]: 84%; residual activity [26]: 81%; residual activity [27]: 47%; residual activity [28]: 100%; residual activity [29]: 89%; residual activity [30]: 62%; residual activity [31]: 100%; residual activity [32]: 94%; residual activity [33]: 88%; residual activity [34]: 100%; residual activity [35]: 94%; residual activity [36]: 92%; residual activity [37]: 100%; residual activity [38]: 69%; residual activity [39]: 97%; residual activity [40]: 88%; residual activity [41]: 82%; residual activity [42]: 83%; residual activity [43]: 100%; residual activity [44]: 100%; inhibition [45]: 9.99%

**Q.** With `C[C@@H](c1cccc(C#N)c1)n1cc(Cl)cc(C(N)=O)c1=N` [(S)-9s] as the molecule, how does the residual activity [1] read?
**A.** 0%

**Q.** And the residual activity [2]?
**A.** 100%

**Q.** What about the residual activity [3] of the same molecule?
**A.** 100%

**Q.** And the residual activity [4]?
**A.** 93%

**Q.** What about the residual activity [5] of the same molecule?
**A.** 79%

**Q.** And the residual activity [6]?
**A.** 100%

**Q.** And the residual activity [7]?
**A.** 89%

**Q.** And the residual activity [8]?
**A.** 100%

**Q.** And the residual activity [9]?
**A.** 85%

**Q.** What about the residual activity [10] of the same molecule?
**A.** 100%

**Q.** And the residual activity [11]?
**A.** 99%

**Q.** What about the residual activity [12] of the same molecule?
**A.** 100%

**Q.** And the residual activity [13]?
**A.** 100%

**Q.** And the residual activity [14]?
**A.** 100%

**Q.** And the residual activity [15]?
**A.** 100%

**Q.** What about the residual activity [16] of the same molecule?
**A.** 86%

**Q.** What about the residual activity [17] of the same molecule?
**A.** 98%

**Q.** And the residual activity [18]?
**A.** 90%

**Q.** And the residual activity [19]?
**A.** 100%

**Q.** What about the residual activity [20] of the same molecule?
**A.** 88%

**Q.** And the residual activity [21]?
**A.** 50%

**Q.** And the residual activity [22]?
**A.** 100%

**Q.** What about the residual activity [23] of the same molecule?
**A.** 100%

**Q.** What about the residual activity [24] of the same molecule?
**A.** 94%

**Q.** What about the residual activity [25] of the same molecule?
**A.** 80%

**Q.** And the residual activity [26]?
**A.** 98%

**Q.** What about the residual activity [27] of the same molecule?
**A.** 71%

**Q.** And the residual activity [28]?
**A.** 89%

**Q.** What about the residual activity [29] of the same molecule?
**A.** 100%

**Q.** What about the residual activity [30] of the same molecule?
**A.** 93%

**Q.** And the residual activity [31]?
**A.** 93%

**Q.** And the residual activity [32]?
**A.** 100%

**Q.** What about the residual activity [33] of the same molecule?
**A.** 84%

**Q.** What about the residual activity [34] of the same molecule?
**A.** 100%

**Q.** And the residual activity [35]?
**A.** 93%

**Q.** And the residual activity [36]?
**A.** 97%

**Q.** What about the residual activity [37] of the same molecule?
**A.** 100%

**Q.** What about the residual activity [38] of the same molecule?
**A.** 80%

**Q.** What about the residual activity [39] of the same molecule?
**A.** 93%

**Q.** What about the residual activity [40] of the same molecule?
**A.** 99%

**Q.** What about the residual activity [41] of the same molecule?
**A.** 84%

**Q.** And the residual activity [42]?
**A.** 95%

**Q.** What about the residual activity [43] of the same molecule?
**A.** 100%

**Q.** What about the residual activity [44] of the same molecule?
**A.** 100%

**Q.** And the inhibition [45]?
**A.** 14.8%
